Data published in the NIST ThermoML archive (doi:10.1021/je050402s).
Numbers after ± are expanded uncertainties.

Assay: xn = mol fraction of the nth substance listed
Details: 100.5 kPa, Liquid; for viscosity: Capillary tube (Ostwald / Ubbelohde) method

CCOC(=O)CC(C)C [ethyl 3-methylbutanoate] + CCO
Details | mass density, 288.15 K [kg/m3] | mass density, 298.15 K [kg/m3] | mass density, 308.15 K [kg/m3] | mass density, 318.15 K [kg/m3] | viscosity, 288.15 K [mPa·s] | viscosity, 298.15 K [mPa·s] | viscosity, 308.15 K [mPa·s] | viscosity, 318.15 K [mPa·s]
x1 = 0.05 | 802.64 ± 0.44 | 793.85 ± 0.45 | 784.95 ± 0.46 | 775.9 ± 0.48 | 1.229 ± 0.014 | 1.02 ± 0.013 | 0.852 ± 0.013 | 0.715 ± 0.013
x1 = 0.1 | 810.36 ± 0.43 | 801.39 ± 0.44 | 792.29 ± 0.46 | 783.04 ± 0.47 | 1.125 ± 0.014 | 0.945 ± 0.013 | 0.793 ± 0.013 | 0.668 ± 0.013
x1 = 0.15 | 817.13 ± 0.42 | 807.99 ± 0.44 | 798.73 ± 0.45 | 789.31 ± 0.46 | 1.057 ± 0.013 | 0.891 ± 0.013 | 0.75 ± 0.013 | 0.638 ± 0.013
x1 = 0.2 | 823.05 ± 0.42 | 813.77 ± 0.43 | 804.39 ± 0.45 | 794.81 ± 0.46 | 1.002 ± 0.013 | 0.848 ± 0.013 | 0.718 ± 0.013 | 0.618 ± 0.013
x1 = 0.25 | 828.3 ± 0.42 | 818.9 ± 0.43 | 809.39 ± 0.44 | 799.73 ± 0.46 | 0.966 ± 0.013 | 0.815 ± 0.013 | 0.695 ± 0.013 | 0.6 ± 0.013
x1 = 0.3 | 833.01 ± 0.42 | 823.53 ± 0.43 | 813.92 ± 0.44 | 804.15 ± 0.46 | 0.935 ± 0.013 | 0.791 ± 0.013 | 0.677 ± 0.013 | 0.587 ± 0.013
x1 = 0.35 | 837.23 ± 0.42 | 827.65 ± 0.43 | 817.96 ± 0.44 | 808.12 ± 0.46 | 0.908 ± 0.013 | 0.771 ± 0.013 | 0.663 ± 0.013 | 0.579 ± 0.013
x1 = 0.4 | 841.07 ± 0.42 | 831.42 ± 0.43 | 821.66 ± 0.45 | 811.75 ± 0.46 | 0.886 ± 0.013 | 0.754 ± 0.013 | 0.653 ± 0.013 | 0.571 ± 0.013
x1 = 0.45 | 844.57 ± 0.43 | 834.87 ± 0.44 | 825.05 ± 0.45 | 815.07 ± 0.46 | 0.867 ± 0.013 | 0.742 ± 0.013 | 0.645 ± 0.013 | 0.565 ± 0.013
x1 = 0.5 | 847.78 ± 0.43 | 838.02 ± 0.44 | 828.15 ± 0.46 | 818.12 ± 0.47 | 0.855 ± 0.013 | 0.733 ± 0.013 | 0.638 ± 0.013 | 0.559 ± 0.013
x1 = 0.55 | 850.72 ± 0.44 | 840.93 ± 0.45 | 831.01 ± 0.46 | 820.95 ± 0.47 | 0.847 ± 0.013 | 0.724 ± 0.013 | 0.631 ± 0.013 | 0.554 ± 0.013
x1 = 0.6 | 853.42 ± 0.45 | 843.59 ± 0.46 | 833.64 ± 0.47 | 823.56 ± 0.48 | 0.84 ± 0.013 | 0.719 ± 0.013 | 0.624 ± 0.013 | 0.55 ± 0.013
x1 = 0.65 | 855.93 ± 0.46 | 846.06 ± 0.47 | 836.09 ± 0.48 | 826 ± 0.49 | 0.835 ± 0.013 | 0.713 ± 0.013 | 0.62 ± 0.013 | 0.548 ± 0.013
x1 = 0.7 | 858.27 ± 0.47 | 848.38 ± 0.48 | 838.38 ± 0.49 | 828.28 ± 0.5 | 0.83 ± 0.013 | 0.713 ± 0.013 | 0.618 ± 0.013 | 0.547 ± 0.013
x1 = 0.75 | 860.46 ± 0.48 | 850.55 ± 0.49 | 840.55 ± 0.5 | 830.44 ± 0.51 | 0.827 ± 0.013 | 0.714 ± 0.013 | 0.619 ± 0.013 | 0.546 ± 0.013
x1 = 0.8 | 862.52 ± 0.49 | 852.6 ± 0.5 | 842.6 ± 0.51 | 832.48 ± 0.52 | 0.83 ± 0.013 | 0.716 ± 0.013 | 0.621 ± 0.013 | 0.549 ± 0.013
x1 = 0.85 | 864.44 ± 0.51 | 854.52 ± 0.51 | 844.51 ± 0.52 | 834.44 ± 0.53 | 0.833 ± 0.013 | 0.722 ± 0.013 | 0.625 ± 0.013 | 0.552 ± 0.013
x1 = 0.9 | 866.27 ± 0.52 | 856.34 ± 0.53 | 846.34 ± 0.53 | 836.27 ± 0.54 | 0.839 ± 0.014 | 0.727 ± 0.013 | 0.631 ± 0.013 | 0.556 ± 0.013
x1 = 0.95 | 868.03 ± 0.53 | 858.12 ± 0.54 | 848.15 ± 0.55 | 838.1 ± 0.55 | 0.845 ± 0.014 | 0.729 ± 0.013 | 0.634 ± 0.013 | 0.56 ± 0.013
x1 = 1 | 869.66 ± 0.55 | 859.78 ± 0.55 | 849.83 ± 0.56 | 839.81 ± 0.57 | 0.853 ± 0.014 | 0.739 ± 0.013 | 0.642 ± 0.013 | 0.566 ± 0.013
